From ChEMBL document CHEMBL5518215, “Unlocking Antibacterial Potential: Key-Site-Based Regulation of Antibacterial Spectrum of Peptides” (J Med Chem, 2024)

Experiments:
Escherichia coli [1] = assay: Antimicrobial activity against Escherichia coli 25922 assessed as absence bacterial growth measured after 18 to 24 hrs incubation in presence of NaCl by NCCLS method; format: functional; conditions: time 18-24 hrs
Escherichia coli [2] = assay: Antimicrobial activity against Escherichia coli 25922 assessed as absence bacterial growth measured after 18 to 24 hrs incubation in presence of ZnCl2 by NCCLS method; format: functional; conditions: time 18-24 hrs
Bacillus cereus [3] = assay: Antimicrobial activity against Bacillus cereus 1.932 assessed as bacterial killing measured after 16 hrs incubation; format: functional
Salmonella typhimurium [4] = assay: Antimicrobial activity against Salmonella typhimurium C7731 assessed as absence bacterial growth measured after 18 to 24 hrs incubation by NCCLS method; format: functional, Salmonella enterica subsp. enterica serovar Typhimurium; conditions: Salmonella enterica, time 18-24 hrs
[5] = Hemolytic activity in human RBC at effective concentration at 128 uM measured after 1 hr by microplate reader relative to control; format: toxicity, cell-based, Erythrocyte; conditions: human red blood cells (erythrocytes), read-out: Activity
Escherichia coli [6] = assay: Antimicrobial activity against Escherichia coli 25922 assessed as absence bacterial growth measured after 18 to 24 hrs incubation in presence of FeCl3 by NCCLS method; format: functional; conditions: time 18-24 hrs
Escherichia coli [7] = assay: Antimicrobial activity against Escherichia coli 25922 assessed as absence bacterial growth measured after 18 to 24 hrs incubation in presence of NH4Cl by NCCLS method; format: functional; conditions: time 18-24 hrs
Salmonella typhimurium [8] = assay: Antimicrobial activity against Salmonella typhimurium C7731 assessed as bacterial killing measured after 16 hrs incubation; format: functional, Salmonella enterica subsp. enterica serovar Typhimurium; conditions: Salmonella enterica
[9] = Antimicrobial activity against Salmonella pullorum C7913 assessed as absence bacterial growth measured after 18 to 24 hrs incubation by NCCLS method; format: functional, Salmonella enterica subsp. enterica serovar Pullorum; conditions: Salmonella enterica, time 18-24 hrs
[10] = Cytotoxicity against human HEK-293T cells assessed as cell survival rate measured after 8 hrs by MTT assay; format: toxicity, cell-based
Bacillus cereus [11] = assay: Antimicrobial activity against Bacillus cereus 1.932 assessed as absence bacterial growth measured after 18 to 24 hrs incubation by NCCLS method; format: functional; conditions: time 18-24 hrs
Erythrocyte = assay: Hemolytic activity in human RBC at effective concentration measured after 1 hr by microplate reader analysis; format: toxicity, cell-based
[12] = tested on: Staphylococcus epidermidis; assay: Antimicrobial activity against Staphylococcus epidermidis 12228 assessed as bacterial killing measured after 16 hrs incubation; format: functional
Salmonella typhimurium [13] = assay: Antimicrobial activity against Salmonella typhimurium 14028 assessed as bacterial killing measured after 16 hrs incubation; format: functional, Salmonella enterica subsp. enterica serovar Typhimurium; conditions: Salmonella enterica
Escherichia coli [14] = assay: Antimicrobial activity against Escherichia coli 25922 assessed as absence bacterial growth measured after 18 to 24 hrs incubation in presence of 25% serum by NCCLS method; format: functional; conditions: time 18-24 hrs
Escherichia coli [15] = assay: Antimicrobial activity against Escherichia coli K88 assessed as absence bacterial growth measured after 18 to 24 hrs incubation by NCCLS method; format: functional; conditions: time 18-24 hrs
Acinetobacter baumannii [16] = assay: Antimicrobial activity against Acinetobacter baumannii 1.6769 assessed as absence bacterial growth measured after 18 to 24 hrs incubation by NCCLS method; format: functional; conditions: time 18-24 hrs
Escherichia coli [17] = assay: Antimicrobial activity against Escherichia coli 25922 assessed as bacterial killing measured after 16 hrs incubation; format: functional
Escherichia coli [18] = assay: Antimicrobial activity against Escherichia coli 25922 assessed as absence bacterial growth measured after 18 to 24 hrs incubation in presence of KCl by NCCLS method; format: functional; conditions: time 18-24 hrs
[19] = Antimicrobial activity against Salmonella pullorum C7913 assessed as bacterial killing measured after 16 hrs incubation; format: functional, Salmonella enterica subsp. enterica serovar Pullorum; conditions: Salmonella enterica
Listeria monocytogenes [20] = assay: Antimicrobial activity against Listeria monocytogenes 1.10753 assessed as absence bacterial growth measured after 18 to 24 hrs incubation by NCCLS method; format: functional; conditions: time 18-24 hrs
Escherichia coli [21] = assay: Antimicrobial activity against Escherichia coli 25922 assessed as absence bacterial growth measured after 18 to 24 hrs incubation in presence of MgCl2 by NCCLS method; format: functional; conditions: time 18-24 hrs
[22] = Cytotoxicity against porcine IPEC-J2 cells assessed as cell survival rate measured after 8 hrs by MTT assay; format: toxicity, cell-based, Sus scrofa; conditions: pig
Escherichia coli [23] = assay: Antimicrobial activity against Escherichia coli 25922 assessed as absence bacterial growth measured after 18 to 24 hrs incubation in presence of 12.5% serum by NCCLS method; format: functional; conditions: time 18-24 hrs
Staphylococcus aureus [24] = assay: Antimicrobial activity against Methicillin-resistant Staphylococcus aureus 43300 assessed as absence bacterial growth measured after 18 to 24 hrs incubation by NCCLS method; format: functional; conditions: time 18-24 hrs
Staphylococcus aureus [25] = assay: Antimicrobial activity against Staphylococcus aureus 29213 assessed as absence bacterial growth measured after 18 to 24 hrs incubation by NCCLS method; format: functional; conditions: time 18-24 hrs
Salmonella typhimurium [26] = assay: Antimicrobial activity against Salmonella typhimurium 14028 assessed as absence bacterial growth measured after 18 to 24 hrs incubation by NCCLS method; format: functional, Salmonella enterica subsp. enterica serovar Typhimurium; conditions: Salmonella enterica, time 18-24 hrs
Listeria monocytogenes [27] = assay: Antimicrobial activity against Listeria monocytogenes 1.10753 assessed as bacterial killing measured after 16 hrs incubation; format: functional
Staphylococcus aureus [28] = assay: Antimicrobial activity against Methicillin-resistant Staphylococcus aureus 43300 assessed as bacterial killing measured after 16 hrs incubation; format: functional
Escherichia coli [29] = assay: Antimicrobial activity against Escherichia coli 25922 assessed as absence bacterial growth measured after 18 to 24 hrs incubation in presence of 50% serum by NCCLS method; format: functional; conditions: time 18-24 hrs
Escherichia coli [30] = assay: Antimicrobial activity against Escherichia coli 25922 assessed as absence bacterial growth measured after 18 to 24 hrs incubation by NCCLS method; format: functional; conditions: time 18-24 hrs
[31] = Cytotoxicity against mouse RAW264.7 cells assessed as cell survival rate measured after 8 hrs by MTT assay; format: toxicity, cell-based
[32] = Cytotoxicity against human HEK-293T cells assessed as cell survival rate at 64 uM measured after 8 hrs by MTT assay relative to control; format: toxicity, cell-based; conditions: read-out: Activity
Enterococcus faecalis [33] = assay: Antimicrobial activity against Enterococcus faecalis 29212 assessed as bacterial killing measured after 16 hrs incubation; format: functional
Staphylococcus aureus [34] = assay: Antimicrobial activity against Staphylococcus aureus 29213 assessed as bacterial killing measured after 16 hrs incubation; format: functional
Staphylococcus aureus [35] = assay: Antimicrobial activity against Staphylococcus aureus 29213 assessed as absence bacterial growth measured after 18 to 24 hrs incubation by NCCLS m; format: functional; conditions: time 18-24 hrs
Escherichia coli [36] = assay: Antimicrobial activity against Escherichia coli K88 assessed as bacterial killing measured after 16 hrs incubation; format: functional
[37] = tested on: Staphylococcus epidermidis; assay: Antimicrobial activity against Staphylococcus epidermidis 12228 assessed as absence bacterial growth measured after 18 to 24 hrs incubation by NCCLS method; format: functional; conditions: time 18-24 hrs
Pseudomonas aeruginosa [38] = assay: Antimicrobial activity against Pseudomonas aeruginosa 27853 assessed as bacterial killing measured after 16 hrs incubation; format: functional
Staphylococcus aureus [39] = assay: Antimicrobial activity against Staphylococcus aureus 25923 assessed as bacterial killing measured after 16 hrs incubation; format: functional
[40] = Cytotoxicity against porcine IPEC-J2 cells assessed as cell survival rate at 64 uM measured after 8 hrs by MTT assay relative to control; format: toxicity, cell-based, Sus scrofa; conditions: pig, read-out: Activity
Pseudomonas aeruginosa [41] = assay: Antimicrobial activity against Pseudomonas aeruginosa 27853 assessed as absence bacterial growth measured after 18 to 24 hrs incubation by NCCLS method; format: functional; conditions: time 18-24 hrs
Enterococcus faecalis [42] = assay: Antimicrobial activity against Enterococcus faecalis 29212 assessed as absence bacterial growth measured after 18 to 24 hrs incubation by NCCLS method; format: functional; conditions: time 18-24 hrs
Acinetobacter baumannii [43] = assay: Antimicrobial activity against Acinetobacter baumannii 1.6769 assessed as bacterial killing measured after 16 hrs incubation; format: functional

Substance: H-GKLWLKGGKLWLKAGKLWLKG-NH2
- MIC (Escherichia coli [1]): 16 µM
- MIC (Escherichia coli [2]): 1 µM
- MBC (Bacillus cereus [3]): 4 µM
- MIC (Salmonella typhimurium [4]): 4 µM
- hemolysis at 1 h, 128 µM [5]: < 10%
- MIC (Escherichia coli [6]): 2 µM
- MIC (Escherichia coli [7]): 2 µM
- MBC (Salmonella typhimurium [8]): 8 µM
- MIC [9]: 2 µM
- IC50 at 8 h [10]: > 64 µM
- MIC (Bacillus cereus [11]): 4 µM
- HC10 (Erythrocyte): > 128 µM
- MBC [12]: 8 µM
- MBC (Salmonella typhimurium [13]): 4 µM
- MIC (Escherichia coli [14]): 32 µM
- MIC (Escherichia coli [15]): 1 µM
- MIC (Acinetobacter baumannii [16]): 2 µM
- MBC (Escherichia coli [17]): 4 µM
- MIC (Escherichia coli [18]): 2 µM
- MBC [19]: 2 µM
- MIC (Listeria monocytogenes [20]): > 32 µM
- MIC (Escherichia coli [21]): 8 µM
- IC50 at 8 h [22]: 54.1 µM
- MIC (Escherichia coli [23]): 16 µM
- MIC (Staphylococcus aureus [24]): 4 µM
- MIC (Staphylococcus aureus [25]): 8 µM
- MIC (Salmonella typhimurium [26]): 4 µM
- MBC (Listeria monocytogenes [27]): > 32 µM
- MBC (Staphylococcus aureus [28]): 4 µM
- MIC (Escherichia coli [29]): > 32 µM
- MIC (Escherichia coli [30]): 2 µM
- IC50 at 8 h [31]: > 64 µM
- viability at 8 h, 64 µM [32]: > 80%
- MBC (Enterococcus faecalis [33]): 16 µM
- MBC (Staphylococcus aureus [34]): 8 µM
- MIC (Staphylococcus aureus [35]): 4 µM
- MBC (Escherichia coli [36]): 1 µM
- MIC [37]: 4 µM
- MBC (Pseudomonas aeruginosa [38]): 8 µM
- MBC (Staphylococcus aureus [39]): 8 µM
- viability at 8 h, 64 µM [40]: > 80%
- MIC (Pseudomonas aeruginosa [41]): 4 µM
- MIC (Enterococcus faecalis [42]): 8 µM
- MBC (Acinetobacter baumannii [43]): 4 µM
